Assay: Inhibition of moloney murine leukemia virus reverse transcriptase

Structure (SMILES): C=C(C)[C@@H]1CC[C@]2(C(=O)O)CC[C@]3(C)[C@H](CC[C@@H]4[C@@]5(C)CC[C@H](O)C(C)(C)[C@@H]5CC[C@]43C)[C@@H]12 [BETULINIC ACID]
- EC50: 1400 nM

— ChEMBL document CHEMBL1158024, “Terpenoids of Syzygium formosanum” (J Nat Prod, 1999)
